Measurements from paper PMC6941357, “An in vitro toolbox to accelerate anti-malarial drug discovery and development” (Malaria Journal, 2020).
Values after ≈ are worked out from the molar mass of the structure shown. Values joined by “and” are separate entries in the source; they are usually repeats but may differ in a detail not shown here. Equal entries are not always repeated. Where two headings read alike, the source gives them in different places. Marks after values point to notes of the source that are not given here.

Key:
[1] = Ionization constants by potentiometric titration; assay type: physicochemical; conditions: mean ± SD, n = 3 titrations; for pKa: aqueous solution (DMSO stock diluted 1:10 with water), read-out: Measured pKa
Summary of the method: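 Glass electrode calibrated at pH 2, 4, 7 and 10; reagents standardized against potassium hydrogen phthalate, titrants protected from CO2. Samples diluted 1:10 with water in the titration vessel, typical final compound concentration 0.5 mM.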

[2] = Solubility in biorelevant media; conditions: for solubility at 1 h: fassgf or other biorelevant; for solubility at 1 h / solubility: thermodynamic from solid
Summary of the method: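 Measured at 37 °C with 600 rpm orbital shaking in pH 7.4 PBS, FaSSIF-V2, FeSSIF-V2 and FaSSGF. Sampled at 1 h (FaSSGF) or 5–6 h (other media) after double centrifugation; supernatant quantified by LC–MS against calibration standards, triplicate aliquots.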

[3] = Solubility limited absorbable dose (SLAD) calculation with predicted human jejunal Peff; conditions: for solubility: FaSSIF; for Permeability classification: based on ref 80 and control compounds; for An (absorption number): Peff × tres/R, minimum 1; for Predicted human Peff: from Caco-2 Papp via calibration plot
From the text: Predicted Peff values were obtained from a calibration plot of literature Peff values vs measured Caco-2 Papp using either buffer or plasma as the transport medium (see Results section).

[4] = molecular target: T1, Albumax medium (lipid rich bovine serum albumin) (Bos taurus, UniProt P02769); test: Binding in Albumax medium via ultracentrifugation; assay type: in vitro ADME; conditions: for fraction unbound at […], 500 ng/mL: bovine, pH 7.4
T1 construct: purchased Gibco, Thermo Fisher Scientific
Summary of the method: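 Unbound fraction (fu) taken as protein-free supernate concentration over total concentration after ultracentrifuging compound-spiked Albumax at 37 °C (5% or 10% CO2, or air). Analysis used 1:1 mixing with the opposite blank matrix against a common pH 7.4 calibration; degradation judged by start versus end Ctotal.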

human liver microsomes = test: in vitro
Summary of the method: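 Compound depletion in human liver microsomes was followed by LC–MS at 2–60 min, with cofactor-free controls. First-order depletion rate constants gave in vitro CLint (µL/min/mg protein), corrected to unbound CLint using measured microsomal fu.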

CYP1A2 = molecular target: T2, CYP1A2 (Homo sapiens, UniProt P05177); test: in vitro
T2 sequence (P05177 1-516): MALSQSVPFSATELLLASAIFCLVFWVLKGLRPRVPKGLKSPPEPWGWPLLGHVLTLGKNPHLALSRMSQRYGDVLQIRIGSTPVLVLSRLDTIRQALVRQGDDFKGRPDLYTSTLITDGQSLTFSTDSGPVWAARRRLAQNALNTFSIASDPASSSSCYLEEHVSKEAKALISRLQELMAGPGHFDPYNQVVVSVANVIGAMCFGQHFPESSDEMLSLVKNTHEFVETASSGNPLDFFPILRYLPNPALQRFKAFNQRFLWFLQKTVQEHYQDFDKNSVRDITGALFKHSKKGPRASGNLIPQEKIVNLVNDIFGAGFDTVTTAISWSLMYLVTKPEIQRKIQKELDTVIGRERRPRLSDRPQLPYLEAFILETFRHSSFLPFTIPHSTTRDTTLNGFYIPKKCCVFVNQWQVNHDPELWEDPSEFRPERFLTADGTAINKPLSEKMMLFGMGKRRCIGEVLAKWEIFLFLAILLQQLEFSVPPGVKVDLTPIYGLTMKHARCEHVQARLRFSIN
Summary of the method: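 LC–MS measurement of the metabolite formed by one CYP isoform from its probe substrate in human liver microsomes, with and without test compound, provided the data. Values are percent inhibition of that metabolic pathway.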

[5] = phosphate buffered saline pH 7.4, 37 °C, pH 7.4, aqueous buffer

T1 sequence (P02769 25-607): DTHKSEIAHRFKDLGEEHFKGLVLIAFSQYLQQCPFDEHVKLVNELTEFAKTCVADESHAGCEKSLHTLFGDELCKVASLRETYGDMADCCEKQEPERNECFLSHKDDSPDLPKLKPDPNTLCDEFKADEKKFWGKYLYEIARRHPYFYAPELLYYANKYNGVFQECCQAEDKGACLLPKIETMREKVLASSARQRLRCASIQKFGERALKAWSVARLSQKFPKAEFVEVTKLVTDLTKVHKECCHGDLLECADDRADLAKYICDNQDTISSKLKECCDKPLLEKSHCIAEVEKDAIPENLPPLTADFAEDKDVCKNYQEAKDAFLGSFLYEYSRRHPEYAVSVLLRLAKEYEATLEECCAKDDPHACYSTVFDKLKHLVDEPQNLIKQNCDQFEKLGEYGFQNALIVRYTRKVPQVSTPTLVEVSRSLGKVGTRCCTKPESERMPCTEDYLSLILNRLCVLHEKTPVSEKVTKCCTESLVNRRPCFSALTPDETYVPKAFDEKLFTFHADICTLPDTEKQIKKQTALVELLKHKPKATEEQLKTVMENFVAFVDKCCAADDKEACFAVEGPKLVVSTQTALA

SMILES	pKa ([1]; basic pKa (B))	solubility at 1 h ([2]; FaSSGF, 37 °C)	solubility ([2]; FaSSIF-V2, 37 °C, fassif)	solubility ([2]; FeSSIF-V2, 37 °C, fessif)	solubility [2, 5]	solubility [3] [µg/mL]	Permeability classification [3]	Unbound CLint (human liver microsomes; human, 1 µM, pH 7.4)	CYP1A2 % inhibition at max conc (CYP1A2; microsomes)	An (absorption number) [3]	Predicted human Peff [3]	other results
OC(c1cc(C(F)(F)F)nc2c(C(F)(F)F)cccc12)C1CCCCN1 (centres unmarked) [Mefloquine]	8.5 ± 0.04	740 µg/mL and 1960 µM	584 µg/mL and 1540 µM	> 2000 µg/mL and > 5200 µM	290 µg/mL and 767 µM	584 (≈ 1540 µM)	High (> 85% absorption (high))	< 140^c µL/min/mg	nmi	–	–	fraction unbound at […], 500 ng/mL ([4]; Albumax medium): 0.27 ± 0.019
CC(C)(N)CNC(=O)C[C@H]1CC[C@]2(CC1)OO[C@]1(O2)C2CC3CC(C2)CC1C3 [OZ277, Arterolane]	8.9 ± 0.16	> 2000 µg/mL and > 5000 µM	> 2000 µg/mL and > 5100 µM	> 2000 µg/mL and > 5000 µM	198 µg/mL and 504 µM	> 2000	High (> 85% absorption (high))	< 159 µL/min/mg	–	3.2	2.7 10^−4 cm/s	FaSSGF solubility ([2]; FaSSGF): > 2000 µg/mL; FaSSIF solubility ([2]; FaSSIF): > 2000 µg/mL; FeSSIF solubility ([2]; FeSSIF): > 2000 µg/mL; SLAD ([3]; Ssi × V (500 mL) × Mp): > 3240 mg; fraction unbound at […], 500 ng/mL ([4]; isolated protein): 0.29 ± 0.021; IC50 (CYP1A2): > 20 µM; CYP1A2 % inhibition at max conc (CYP1A2; human liver microsomes, at max conc, nmi = no measurable inhibition): nmi
CCc1nc(N)nc(N)c1OCCCOc1ccccc1CCC(=O)O.Cl [P218]	–	–	–	–	–	–	Low (< 50% absorption (low))	–	nmi	1.0	0.24 10^−4 cm/s	Measured pKa ([1]; acidic pKa (A)): 4.9 ± 0.002; Measured pKa ([1]; basic pKa (B)): 7.3 ± 0.003; Solubility FaSSGF (1 h) ([2]; 37 °C): > 2000 µg/mL and > 5550 µM; Solubility FaSSIF-V2 (5–6 h) ([2]; 37 °C): 408 µg/mL and 1130 µM; Solubility FeSSIF-V2 (5–6 h) ([2]; 37 °C): 525 µg/mL and 1460 µM; Solubility PBS7.4 (5–6 h) ([2]; 37 °C): 1070 µg/mL and 2960 µM; solubility in all media tested ([2]; FaSSGF, FaSSIF-V2, FeSSIF-V2, PBS pH 7.4): 400 to 500 µg/mL; SLAD [3]: 204 mg; Ssi (estimated solubility in the small intestine) ([3]; based on measured FaSSIF solubility): 408 µg/mL; Fraction unbound, Albumax [4]: 0.41 ± 0.022; Unbound CLint (human liver microsomes): < 7.95^c µL/min/mg; HLM CLint (human liver microsomes; human, microsomes): < 7^b µL/min/mg; IC50 (CYP1A2; microsomes): > 20 µM
